We go through ten molecules from patent US12258327B2, “5-membered heteroaryl-containing aminopyridine compounds as EGFR inhibitors” (YUHAN CORPORATION, priority 2021, dated 2025).

One assay addresses EGFR del19/T790M/C797S (Homo sapiens, UniProt P00533, C797S/DEL746-750/T790M). Kind of assay: Biochemical EGFR kinase assay (Lance Ultra TR-FRET), triple mutant del19/T790M/C797S. Put shortly: (§1)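 In this biochemical assay, phosphorylation after a one-hour room-temperature reaction was detected with europium-labelled anti-phosphopeptide antibody at 2 nM final concentration.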
In general terms: Time-resolved FRET reads energy transfer from a long-lived donor to a nearby acceptor.

A further assay has as its target EGFR L858R/T790M/C797S (Homo sapiens, UniProt P00533, C797S/L858R/T790M). Kind of assay: Biochemical EGFR kinase assay (Lance Ultra TR-FRET), triple mutant L858R/T790M/C797S. Put shortly:
as §1

Another assay has as its target EGFR del19/C797S (Homo sapiens, UniProt P00533, C797S/DEL746-750). The assay can be described thus: Biochemical EGFR kinase assay (Lance Ultra TR-FRET), double mutant del19/C797S. The procedure, abridged: as §1
The next assay addresses EGFR L858R/C797S (Homo sapiens, UniProt P00533, C797S/L858R). The assay can be described thus: Biochemical EGFR kinase assay (Lance Ultra TR-FRET), double mutant L858R/C797S. Put shortly: as §1
The target in a further assay is EGFR wildtype (WT) (Homo sapiens, UniProt P00533). The assay can be described thus: Biochemical EGFR kinase assay (Lance Ultra TR-FRET), wildtype. The procedure, abridged:
as §1

Setting [1] is: IC50 del19/T790M/C797S (nM) 100 μM ATP, 100 μM ATP.
Setting [2] is: Km ATP, read-out: IC50 del19/T790M/C797S (nM) Km ATP.
[3] abbreviates: IC50 L858R/T790M/C797S (nM) 100 μM ATP, 100 μM ATP.
The mark [4] stands for this setting: Km ATP, read-out: IC50 L858R/T790M/C797S (nM) Km ATP.
The mark [5] stands for this setting: IC50 del19/C797S (nM) 100 μM ATP, 100 μM ATP.
The mark [6] stands for this setting: Km ATP, read-out: IC50 del19/C797S (nM) Km ATP.
Where [7] appears, read: IC50 L858R/C797S (nM) 100 μM ATP, 100 μM ATP.
The mark [8] stands for this setting: Km ATP, read-out: IC50 L858R/C797S (nM) Km ATP.
The mark [9] stands for this setting: IC50 WT (nM) 100 μM ATP, 100 μM ATP.
Setting [10] is: Km ATP, read-out: IC50 WT (nM) Km ATP.

The structures appear in SMILES notation. pIC50: −log10 of the molar value. Like-named read-outs stand apart in the source and are kept apart here.

Sequence of EGFR del19/T790M/C797S (P00533 with tags, fused parts or gaps DEL746-750/T790M/C797S): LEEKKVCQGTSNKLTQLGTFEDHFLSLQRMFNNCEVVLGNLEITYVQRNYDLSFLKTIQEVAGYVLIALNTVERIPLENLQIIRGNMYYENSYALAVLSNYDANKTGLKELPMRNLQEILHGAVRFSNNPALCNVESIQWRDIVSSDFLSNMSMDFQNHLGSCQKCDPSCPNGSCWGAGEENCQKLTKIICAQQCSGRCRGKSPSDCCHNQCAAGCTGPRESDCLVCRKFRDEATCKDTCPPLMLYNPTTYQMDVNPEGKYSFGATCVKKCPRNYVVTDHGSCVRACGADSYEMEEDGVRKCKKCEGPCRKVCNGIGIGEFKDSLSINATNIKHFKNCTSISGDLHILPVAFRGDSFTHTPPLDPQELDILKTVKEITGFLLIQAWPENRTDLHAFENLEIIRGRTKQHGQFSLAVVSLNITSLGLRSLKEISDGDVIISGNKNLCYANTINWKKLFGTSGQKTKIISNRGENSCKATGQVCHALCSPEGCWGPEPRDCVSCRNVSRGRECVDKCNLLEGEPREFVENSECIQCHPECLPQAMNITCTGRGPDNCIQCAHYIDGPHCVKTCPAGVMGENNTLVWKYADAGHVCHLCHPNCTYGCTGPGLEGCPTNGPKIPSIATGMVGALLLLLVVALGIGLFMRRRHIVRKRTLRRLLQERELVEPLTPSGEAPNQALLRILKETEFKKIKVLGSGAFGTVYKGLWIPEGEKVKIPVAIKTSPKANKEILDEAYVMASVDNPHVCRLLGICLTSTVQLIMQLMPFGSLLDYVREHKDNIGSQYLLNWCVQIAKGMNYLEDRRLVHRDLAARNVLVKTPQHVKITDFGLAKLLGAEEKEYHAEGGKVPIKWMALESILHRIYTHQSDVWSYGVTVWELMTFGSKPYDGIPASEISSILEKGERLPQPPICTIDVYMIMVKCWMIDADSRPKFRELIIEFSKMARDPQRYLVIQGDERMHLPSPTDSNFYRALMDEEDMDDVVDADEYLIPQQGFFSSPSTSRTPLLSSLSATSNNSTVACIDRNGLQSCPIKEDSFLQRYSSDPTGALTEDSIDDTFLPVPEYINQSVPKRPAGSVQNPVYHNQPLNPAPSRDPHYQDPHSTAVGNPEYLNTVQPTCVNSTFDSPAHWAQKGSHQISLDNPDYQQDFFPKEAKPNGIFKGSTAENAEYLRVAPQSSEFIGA
Sequence of EGFR L858R/T790M/C797S (P00533 25-1210 T790M/C797S/L858R): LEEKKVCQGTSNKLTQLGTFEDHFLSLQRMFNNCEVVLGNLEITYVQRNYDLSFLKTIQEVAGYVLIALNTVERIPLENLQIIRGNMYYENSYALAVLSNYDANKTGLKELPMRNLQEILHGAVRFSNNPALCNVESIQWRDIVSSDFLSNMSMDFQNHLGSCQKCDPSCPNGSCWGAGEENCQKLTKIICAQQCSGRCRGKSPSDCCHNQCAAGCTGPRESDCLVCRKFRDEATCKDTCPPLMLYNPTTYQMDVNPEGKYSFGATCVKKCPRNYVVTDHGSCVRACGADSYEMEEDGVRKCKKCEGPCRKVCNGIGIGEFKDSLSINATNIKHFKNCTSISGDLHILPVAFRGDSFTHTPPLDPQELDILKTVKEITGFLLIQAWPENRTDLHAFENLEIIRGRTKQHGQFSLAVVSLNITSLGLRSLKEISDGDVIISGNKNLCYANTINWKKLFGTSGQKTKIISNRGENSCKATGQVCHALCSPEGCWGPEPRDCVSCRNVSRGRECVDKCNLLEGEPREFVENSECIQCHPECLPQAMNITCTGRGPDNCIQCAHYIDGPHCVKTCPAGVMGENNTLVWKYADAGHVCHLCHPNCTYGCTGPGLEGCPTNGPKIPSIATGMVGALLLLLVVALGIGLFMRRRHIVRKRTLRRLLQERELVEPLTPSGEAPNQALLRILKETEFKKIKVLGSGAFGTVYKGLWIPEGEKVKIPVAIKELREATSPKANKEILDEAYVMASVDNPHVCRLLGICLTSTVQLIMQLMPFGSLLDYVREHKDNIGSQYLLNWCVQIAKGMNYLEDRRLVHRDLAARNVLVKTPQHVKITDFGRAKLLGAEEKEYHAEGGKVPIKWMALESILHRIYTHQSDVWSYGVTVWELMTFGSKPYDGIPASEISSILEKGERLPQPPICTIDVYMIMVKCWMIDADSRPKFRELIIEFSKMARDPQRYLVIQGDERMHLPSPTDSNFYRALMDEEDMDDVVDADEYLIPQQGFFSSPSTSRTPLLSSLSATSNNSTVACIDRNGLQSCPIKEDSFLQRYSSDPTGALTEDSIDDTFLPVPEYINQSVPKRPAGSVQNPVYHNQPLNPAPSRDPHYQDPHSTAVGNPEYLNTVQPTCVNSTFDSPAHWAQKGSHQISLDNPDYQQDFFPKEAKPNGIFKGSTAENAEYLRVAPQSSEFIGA
Sequence of EGFR del19/C797S (P00533 with tags, fused parts or gaps DEL746-750/C797S): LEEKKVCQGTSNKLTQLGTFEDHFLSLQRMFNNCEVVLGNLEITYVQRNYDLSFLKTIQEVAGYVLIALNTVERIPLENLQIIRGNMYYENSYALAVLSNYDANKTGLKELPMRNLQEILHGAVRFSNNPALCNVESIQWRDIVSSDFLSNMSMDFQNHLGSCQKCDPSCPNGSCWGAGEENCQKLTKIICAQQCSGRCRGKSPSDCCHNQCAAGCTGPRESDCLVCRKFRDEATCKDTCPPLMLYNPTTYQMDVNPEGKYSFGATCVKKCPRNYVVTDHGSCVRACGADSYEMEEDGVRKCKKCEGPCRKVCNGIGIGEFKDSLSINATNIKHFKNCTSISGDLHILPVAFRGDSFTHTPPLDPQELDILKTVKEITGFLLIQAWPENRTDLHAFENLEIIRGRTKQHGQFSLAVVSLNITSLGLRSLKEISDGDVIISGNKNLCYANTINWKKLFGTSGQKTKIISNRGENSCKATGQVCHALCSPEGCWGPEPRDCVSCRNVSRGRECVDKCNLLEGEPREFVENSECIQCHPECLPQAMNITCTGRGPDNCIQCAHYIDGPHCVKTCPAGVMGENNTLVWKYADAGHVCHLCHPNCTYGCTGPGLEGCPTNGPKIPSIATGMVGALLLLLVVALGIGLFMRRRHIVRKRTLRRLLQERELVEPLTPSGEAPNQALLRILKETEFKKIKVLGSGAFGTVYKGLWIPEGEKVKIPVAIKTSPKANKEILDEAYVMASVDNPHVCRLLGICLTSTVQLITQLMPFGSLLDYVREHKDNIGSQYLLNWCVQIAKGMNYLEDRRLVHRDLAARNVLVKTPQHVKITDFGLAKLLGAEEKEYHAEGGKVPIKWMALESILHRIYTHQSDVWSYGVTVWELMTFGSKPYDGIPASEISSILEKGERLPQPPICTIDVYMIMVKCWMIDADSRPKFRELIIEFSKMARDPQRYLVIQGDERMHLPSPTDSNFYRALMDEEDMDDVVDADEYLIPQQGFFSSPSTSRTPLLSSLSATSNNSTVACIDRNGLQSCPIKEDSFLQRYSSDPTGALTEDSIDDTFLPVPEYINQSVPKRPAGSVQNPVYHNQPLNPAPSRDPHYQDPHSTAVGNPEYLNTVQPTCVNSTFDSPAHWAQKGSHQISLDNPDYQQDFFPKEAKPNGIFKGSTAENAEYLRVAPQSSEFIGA
Sequence of EGFR L858R/C797S (P00533 25-1210 C797S/L858R): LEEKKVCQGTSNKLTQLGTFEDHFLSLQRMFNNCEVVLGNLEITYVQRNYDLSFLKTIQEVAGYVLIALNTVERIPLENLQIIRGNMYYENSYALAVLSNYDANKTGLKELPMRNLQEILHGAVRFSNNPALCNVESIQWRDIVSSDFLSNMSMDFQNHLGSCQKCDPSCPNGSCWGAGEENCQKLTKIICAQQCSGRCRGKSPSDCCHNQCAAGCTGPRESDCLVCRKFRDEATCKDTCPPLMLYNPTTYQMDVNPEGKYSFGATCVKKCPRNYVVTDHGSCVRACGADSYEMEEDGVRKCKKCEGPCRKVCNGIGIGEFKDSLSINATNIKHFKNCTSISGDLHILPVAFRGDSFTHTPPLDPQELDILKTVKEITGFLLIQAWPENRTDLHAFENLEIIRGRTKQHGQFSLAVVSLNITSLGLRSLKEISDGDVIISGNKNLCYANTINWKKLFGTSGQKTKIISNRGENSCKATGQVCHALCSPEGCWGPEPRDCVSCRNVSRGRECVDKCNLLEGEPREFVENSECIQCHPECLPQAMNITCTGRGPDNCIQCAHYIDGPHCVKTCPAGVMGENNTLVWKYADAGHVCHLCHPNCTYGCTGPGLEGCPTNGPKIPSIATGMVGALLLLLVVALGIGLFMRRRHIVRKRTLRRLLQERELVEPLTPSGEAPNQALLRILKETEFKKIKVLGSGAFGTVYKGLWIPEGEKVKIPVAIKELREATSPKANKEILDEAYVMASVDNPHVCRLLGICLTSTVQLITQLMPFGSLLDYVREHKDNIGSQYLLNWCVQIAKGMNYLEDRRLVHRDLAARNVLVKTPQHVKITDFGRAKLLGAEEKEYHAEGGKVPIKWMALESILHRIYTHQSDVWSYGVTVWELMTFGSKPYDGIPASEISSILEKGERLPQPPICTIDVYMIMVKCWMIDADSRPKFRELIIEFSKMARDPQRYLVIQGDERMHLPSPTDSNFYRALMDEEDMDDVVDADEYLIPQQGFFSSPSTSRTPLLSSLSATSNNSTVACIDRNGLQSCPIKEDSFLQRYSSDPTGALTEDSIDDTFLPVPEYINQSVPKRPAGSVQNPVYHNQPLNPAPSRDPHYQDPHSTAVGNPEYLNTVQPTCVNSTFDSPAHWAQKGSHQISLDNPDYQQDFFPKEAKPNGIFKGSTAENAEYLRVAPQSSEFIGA

Take `O=S(=O)(C1CC1)n1cc(-c2nccc(Nc3cc(NCC4CCC(NCCF)CC4)c(-c4ccn(C(F)F)n4)cn3)n2)cn1` (centres unmarked) [Example 132, N^2-(2-(1-(Cyclopropylsulfonyl)-1H-pyrazol-4-yl)pyrimidin-4-yl)-5-(1-(difluoromethyl)-1H-pyrazol-3-yl)-N^4-((4-((2-fluoroethyl)amino)cyclohexyl)methyl)pyridine-2,4-diamine]: the IC50 against EGFR del19/T790M/C797S (setting [1]) stood at 0.4 nM; at EGFR del19/T790M/C797S (setting [2]) it was 0.3 nM; against EGFR L858R/T790M/C797S (setting [3]) it was 0.5 nM; on EGFR L858R/T790M/C797S (setting [4]) it was 0.1 nM; at EGFR del19/C797S (setting [5]) it was 1.1 nM; at EGFR del19/C797S (setting [6]) it was 0.5 nM. Moreover, the IC50 on EGFR L858R/C797S (setting [7]) turned out to be 2.3 nM; on EGFR L858R/C797S (setting [8]), 0.8 nM; against EGFR wildtype (WT) (setting [9]), 4690 nM; at EGFR wildtype (WT) (setting [10]), 5.2 nM.
With `CC(C)Nc1cc(Nc2ccnc(-c3cnn(S(=O)(=O)C4CC4)c3)n2)ncc1-c1csc(C(C)(C)O)n1` [Example 92, 2-(4-(6-((2-(1-(Cyclopropylsulfonyl)-1H-pyrazol-4-yl)pyrimidin-4-yl)amino)-4-(isopropylamino)pyridin-3-yl)thiazol-2-yl)propan-2-ol], the IC50 was 2.6 nM against EGFR del19/T790M/C797S (setting [1]); 7.7 nM at EGFR L858R/T790M/C797S (setting [3]); 10 nM against EGFR del19/C797S (setting [5]); 103 nM on EGFR L858R/C797S (setting [7]); greater than 10000 nM at EGFR wildtype (WT) (setting [9]).
Consider `CN(C)C(=O)C[C@H]1CC[C@@H](Nc2cc(Nc3ccnc(-c4cnn(S(=O)(=O)C5CC5)c4)n3)ncc2-c2ccn(C(F)F)n2)CC1` [Example 205, 2-((1s,4s)-4-((2-((2-(1-(Cyclopropylsulfonyl)-1H-pyrazol-4-yl)pyrimidin-4-yl)amino)-5-(1-(difluoromethyl)-1H-pyrazol-3-yl)pyridin-4-yl)amino)cyclohexyl)-N,N-dimethylacetamide], for which the IC50 at EGFR del19/T790M/C797S (setting [1]) was determined as 0.6 nM; on EGFR del19/T790M/C797S (setting [2]), 0.3 nM; against EGFR L858R/T790M/C797S (setting [3]), 0.4 nM; at EGFR L858R/T790M/C797S (setting [4]) it was 0.2 nM; on EGFR del19/C797S (setting [5]) it was 1 nM; at EGFR del19/C797S (setting [6]), 0.6 nM. The IC50 worked out at 10.1 nM against EGFR L858R/C797S (setting [7]), 0.4 nM on EGFR L858R/C797S (setting [8]), 3960 nM against EGFR wildtype (WT) (setting [9]) and 4.4 nM at EGFR wildtype (WT) (setting [10]).
With `COc1cc(-c2nccc(Nc3cc(N[C@H]4CC[C@@](C)(O)CC4)c(-c4ccn(C(F)F)n4)cn3)n2)ccn1` [Example 169, (1s,4s)-4-((5-(1-(Difluoromethyl)-1H-pyrazol-3-yl)-2-((2-(2-methoxypyridin-4-yl)pyrimidin-4-yl)amino)pyridin-4-yl)amino)-1-methylcyclohexan-1-ol], the IC50 was 20.1 nM at EGFR del19/T790M/C797S (setting [2]); 15.5 nM on EGFR L858R/T790M/C797S (setting [4]); 110 nM on EGFR del19/C797S (setting [6]); 43.4 nM at EGFR L858R/C797S (setting [8]); 325 nM at EGFR wildtype (WT) (setting [10]).
For `CN(C)CC[C@H]1CC[C@@H](Nc2cc(Nc3nc(-c4cnn(S(=O)(=O)C5CC5)c4)ncc3F)ncc2-c2ccn(C(F)F)n2)CC1` [Example 325, N^2-(2-(1-(Cyclopropylsulfonyl)-1H-pyrazol-4-yl)-5-fluoropyrimidin-4-yl)-5-(1-(difluoromethyl)-1H-pyrazol-3-yl)-N^4-((1s,4s)-4-(2-(dimethylamino)ethyl)cyclohexyl)pyridine-2,4-diamine], in that order: 0.2 nM, 0.1 nM, 0.6 nM, 0.3 nM and 1.2 nM.
As to `CN(C)CC1CCC(Nc2cc(Nc3ccnc(-c4cnn(S(=O)(=O)C5CC5)c4)n3)ncc2-c2ccn(C3COC3)n2)CC1` (centres unmarked) [Example 284, N^2-(2-(1-(Cyclopropylsulfonyl)-1H-pyrazol-4-yl)pyrimidin-4-yl)-N^4-((1s,4s)-4-((dimethylamino)methyl)cyclohexyl)-5-(1-(oxetan-3-yl)-1H-pyrazol-3-yl)pyridine-2,4-diamine], the IC50 is 0.1 nM on EGFR del19/T790M/C797S (setting [1]); 0.1 nM on EGFR del19/T790M/C797S (setting [2]); 0.1 nM against EGFR L858R/T790M/C797S (setting [3]); 0.1 nM on EGFR L858R/T790M/C797S (setting [4]); 0.4 nM on EGFR del19/C797S (setting [5]); 0.1 nM on EGFR del19/C797S (setting [6]). For the same molecule, the IC50 at EGFR L858R/C797S (setting [7]) was determined as 0.9 nM; at EGFR L858R/C797S (setting [8]), 0.1 nM; against EGFR wildtype (WT) (setting [9]), 387 nM; on EGFR wildtype (WT) (setting [10]) it was 0.8 nM.
Consider `CN(C)C[C@H]1CC[C@@H](Nc2cc(Nc3ccnc(-c4cnn(S(=O)(=O)C5CC5)c4)n3)ncc2-c2cc3n(n2)CCCC3)CC1` [Example 277, N^2-(2-(1-(Cyclopropylsulfonyl)-1H-pyrazol-4-yl)pyrimidin-4-yl)-N^4-((1s,4s)-4-((dimethylamino)methyl)cyclohexyl)-5-(4,5,6,7-tetrahydropyrazolo[1,5-a]pyridin-2-yl)pyridine-2,4-diamine], for which the IC50 was determined as 0.3 nM at EGFR del19/T790M/C797S (setting [1]); 0.2 nM at EGFR del19/T790M/C797S (setting [2]); 0.3 nM at EGFR L858R/T790M/C797S (setting [3]); 0.1 nM at EGFR L858R/T790M/C797S (setting [4]); 0.5 nM at EGFR del19/C797S (setting [5]); 0.2 nM at EGFR del19/C797S (setting [6]). The IC50 amounted to 1.6 nM against EGFR L858R/C797S (setting [7]), 0.2 nM at EGFR L858R/C797S (setting [8]), 47.5 nM at EGFR wildtype (WT) (setting [9]) and 0.4 nM on EGFR wildtype (WT) (setting [10]).
On to `O=S(=O)(C1CC1)n1cc(-c2nccc(Nc3cc(N[C@H]4CC[C@@H](NCCF)CC4)c(-c4csc(C(F)(F)F)n4)cn3)n2)cn1` [Example 50, N^2-(2-(1-(Cyclopropylsulfonyl)-1H-pyrazol-4-yl)pyrimidin-4-yl)-N^4-((1s,4s)-4-((2-fluoroethyl)amino)cyclohexyl)-5-(2-(trifluoromethyl)thiazol-4-yl)pyridine-2,4-diamine], for which the IC50 at EGFR del19/T790M/C797S (read-out: IC50 del19/T790M/C797S (nM) 100 μM ATP, 100 μM ATP) is 1.1 nM; at EGFR L858R/T790M/C797S (read-out: IC50 L858R/T790M/C797S (nM) 100 μM ATP, 100 μM ATP), 1.6 nM; at EGFR del19/C797S (read-out: IC50 del19/C797S (nM) 100 μM ATP, 100 μM ATP) it was 25.6 nM; on EGFR L858R/C797S (read-out: IC50 L858R/C797S (nM) 100 μM ATP, 100 μM ATP), 42.2 nM; on EGFR wildtype (WT) (read-out: IC50 WT (nM) 100 μM ATP, 100 μM ATP), greater than 10000 nM.
In general, pIC50 refers to −log10 of the IC50, conventionally taken in molar units. As for `CC1(O)CCC(Nc2cc(Nc3ccnc(N4CC(CO)C(F)(F)C4)n3)ncc2-c2ccn(C(F)F)n2)CC1` (centres unmarked) [Example 346, (1s,4s)-4-((2-((2-(3,3-Difluoro-4-(hydroxymethyl)pyrrolidin-1-yl)pyrimidin-4-yl)amino)-5-(1-(difluoromethyl)-1H-pyrazol-3-yl)pyridin-4-yl)amino)-1-methylcyclohexan-1-ol], the negative-log IC50 (pIC50) at EGFR del19/T790M/C797S (IC50 del19/T790M/C797S, 100 μM ATP) was 8.20; against EGFR L858R/T790M/C797S (IC50 L858R/T790M/C797S, 100 μM ATP), 8.43; against EGFR del19/C797S (IC50 del19/C797S, 100 μM ATP) it was 6.91; at EGFR L858R/C797S (IC50 L858R/C797S, 100 μM ATP) it was 6.39; against EGFR wildtype (WT) (IC50 WT, 100 μM ATP), less than 5.00; at EGFR wildtype (WT) (Km ATP, read-out: IC50 WT, Km ATP), 6.48.
`O=S(=O)(C1CC1)n1cc(-c2nccc(Nc3cc(N[C@H]4CC[C@@H](O)CC4)c(-c4csc(C(F)(F)F)n4)cn3)n2)cn1` [Example 81, (1s,4s)-4-((2-((2-(1-(Cyclopropylsulfonyl)-1H-pyrazol-4-yl)pyrimidin-4-yl)amino)-5-(2-(trifluoromethyl)thiazol-4-yl)pyridin-4-yl)amino)cyclohexan-1-ol]: the IC50 was determined as 1.1 nM at EGFR del19/T790M/C797S (setting [1]); 1.2 nM against EGFR L858R/T790M/C797S (setting [3]); 3.4 nM against EGFR del19/C797S (setting [5]); 4.8 nM against EGFR L858R/C797S (setting [7]); 1240 nM against EGFR wildtype (WT) (setting [9]).
